Here are results for 11 compounds from ChEMBL document CHEMBL1134618, “Synthesis and biological evaluation of sialylmimetics as rotavirus inhibitors” (J Med Chem, 2001).

A value given as a limit tells only on which side of the number the result lay.

In assay [1] the test system is Rotavirus. As to the kind of experiment: Inhibitory activity against human Wa Rotavirus strain. In kind it is functional, organism-based.
Assay [2] deals with Rotavirus. As to the kind of experiment: Inhibitory activity against bovine NCDV Rotavirus strain. In kind it is functional, organism-based.

As a reminder, the IC50 is the concentration that inhibits the measured activity by half. Regarding `CCC(SC[C@@H]1O[C@@H](OC)[C@@H](O)[C@@H](O)[C@@H]1O)C(=O)O` (stereo partly specified), the IC50 in the assay with Rotavirus [1] and in the assay with Rotavirus [2] was greater than 25 mM each time.

On to `CO[C@@H]1O[C@@H](CSC(CCO)C(=O)O)[C@@H](O)[C@H](O)[C@@H]1O` (stereo partly specified), for which the IC50 in the assay on Rotavirus [1] and with Rotavirus [2] was greater than 25 mM in each case.

In the case of `CO[C@@H]1O[C@@H](CSC(C(=O)O)c2ccccc2)[C@@H](O)[C@H](O)[C@@H]1O` (stereo partly specified), the half-inhibitory concentration (IC50) in the assay on Rotavirus [1] and in the assay with Rotavirus [2] was greater than 25 mM throughout.

Regarding `CCC(SC[C@@H]1O[C@@H](OC)[C@@H](O)[C@@H](O)[C@H]1O)C(=O)O` (stereo partly specified), the half-maximal inhibitory concentration (IC50) is greater than 25 mM with Rotavirus [1] and 25 mM in the assay with Rotavirus [2].

Regarding `CO[C@@H]1O[C@@H](CSC(C(=O)O)c2ccccc2)[C@H](O)[C@H](O)[C@@H]1O` (stereo partly specified), the IC50 with Rotavirus [1] and in the assay with Rotavirus [2] was greater than 25 mM throughout.

As to `CO[C@@H]1O[C@@H](CSC(CCO)C(=O)O)[C@H](O)[C@H](O)[C@@H]1O` (stereo partly specified), the concentration for half-maximal inhibition (IC50) in the assay on Rotavirus [1] and with Rotavirus [2] was greater than 25 mM each time.

Compound `COC1OC(CSC2(C(=O)O)CC(O)C(NC(C)=O)C([C@H](O)[C@H](O)CO)O2)C(O)C(O)C1O` (stereo partly specified) had an IC50 in the assay with Rotavirus [1] greater than 25 mM.

With `COC1OC(CSC(C)C(=O)O)C(O)C(O)C1O` (stereo unspecified), the half-inhibitory concentration (IC50) with Rotavirus [1] and in the assay with Rotavirus [2] was greater than 25 mM throughout.

`CCC(SC[C@@H]1O[C@@H](O[C@H]2[C@H](O)[C@H](O)[C@H](OC)O[C@H]2CO)[C@@H](O)[C@@H](O)[C@H]1O)C(=O)O` (stereo partly specified): the IC50 in the assay with Rotavirus [1] and with Rotavirus [2] was 6.25 mM in each case.

Regarding `CO[C@@H]1O[C@@H](CO)[C@@H](O[C@@H]2O[C@@H](CSC(C(=O)O)c3ccccc3)[C@H](O)[C@H](O)[C@@H]2O)[C@H](O)[C@@H]1O` (stereo partly specified), the IC50 with Rotavirus [1] came out at 25 mM; with Rotavirus [2] it was 12.5 mM.

For the compound `CO[C@@H]1O[C@@H](CO)[C@@H](O[C@@H]2O[C@@H](CSC(C)C(=O)O)[C@H](O)[C@H](O)[C@@H]2O)[C@H](O)[C@@H]1O` (stereo partly specified), the IC50 in the assay on Rotavirus [1] came to 6.25 mM; in the assay on Rotavirus [2], 12.5 mM.
